Reference: ChEMBL document CHEMBL4825698, “Identification of novel benzothiopyranones with ester and amide motifs derived from active metabolite as promising leads against Mycobacterium tuberculosis” (Eur J Med Chem, 2021)
In brackets after ≈: the same amount, converted by molar mass.

Tests used:
[1] = Metabolic stability in pooled human hepatocytes assessed as half life; type: ADME, cell-based, Hepatocyte
[2] = Metabolic stability in pooled mouse hepatocytes assessed as parent compound remaining after 30 mins; type: ADME, cell-based, Hepatocyte; details: read-out: Stabilty
[3] = Metabolic stability in pooled mouse hepatocytes assessed as half life; type: ADME, cell-based, Hepatocyte
[4] = tested on: Mycobacterium tuberculosis; assay: Antimycobacterial activity against Mycobacterium tuberculosis H37Rv assessed as bacterial growth inhibition incubated for 7 days by MABA assay; type: functional; details: 168 h, time 7 day
Vero = assay: Cytotoxicity against African green monkey Vero cells assessed as reduction in cell viability after 48 hrs by MTT assay; type: cell-based; details: Chlorocebus sabaeus
[5] = Metabolic Stability in pooled human hepatocytes assessed as parent compound remaining after 30 mins; type: ADME, cell-based, Hepatocyte; details: read-out: Stabilty
[6] = Solubility of the compound in water measured after 20 mins by HPLC analysis; type: physicochemical
[7] = Toxicity in BALB/c mouse infected with Mycobacterium tuberculosis H37Rv assessed as body weight at 25 mg/kg, po via gavage administered for 3 weeks starting from day 10 post infection and administered 5 times a week (reference value: 24.59 +/- 0.61 g); type: organism-based; details: in vivo, 504 h
[8] = tested on: Mycobacterium tuberculosis; assay: Antimycobacterial activity against Mycobacterium tuberculosis H37Rv infected in BALB/c mouse model of acute tuberculosis infection assessed as log change in bacterial burden in mouse lung at 25 mg/kg, po via gavage administered for 3 weeks starting from day 10 post infection and administered 5 times a week (reference value: 4.94=+/-0.06 1og10CFU); type: functional

Row | Compound | half-life [1] [min] | remaining at 0.5 h [2] [%] | half-life [3] [min] | MIC [4] [µg/mL] | IC50 (Vero) [µg/mL] | remaining at 0.5 h [5] [%] | solubility at 20 min [6] [µg/mL] | Activity [7] [g] | Activity [8] [log10CFU]
1 | O=C(OC1CCC(CN2CCN(c3cc(=O)c4cc(C(F)(F)F)cc([N+](=O)[O-])c4s3)CC2)CC1)c1ccc(C(F)(F)F)cc1 (stereo not drawn) | 7 | 28.8 | 16.7 | < 0.016 | > 64 | 5.2 | – | – | –
2 | O=c1cc(N2CCN(CC3CCC(NP(=O)(Oc4ccccc4)Oc4ccccc4)CC3)CC2)sc2c([N+](=O)[O-])cc(C(F)(F)F)cc12 (stereo not drawn) | 69.2 | 66.1 | 50.2 | 0.076 (≈ 0.108 µM) | > 64 | 74.1 | – | – | –
3 | CC(C)S(=O)(=O)OC1CCC(CN2CCN(c3cc(=O)c4cc(C(F)(F)F)cc([N+](=O)[O-])c4s3)CC2)CC1 (stereo not drawn) | – | – | – | < 0.016 | > 64 | – | – | – | –
4 | O=C(OC1CCC(CN2CCN(c3cc(=O)c4cc(C(F)(F)F)cc([N+](=O)[O-])c4s3)CC2)CC1)c1ccncc1 (stereo not drawn) | 4.5 | 1.4 | 4.9 | < 0.016 | > 64 | 1 | – | – | –
5 | O=c1cc(N2CCN(CC3CCC(OS(=O)(=O)c4ccccc4)CC3)CC2)sc2c([N+](=O)[O-])cc(C(F)(F)F)cc12 (stereo not drawn) | – | – | – | < 0.016 | > 64 | – | – | – | –
6 | O=c1cc(N2CCN(CC3CCCCC3)CC2)sc2c(NO)cc(C(F)(F)F)cc12 | – | 47.8 | – | 0.244 (≈ 0.553 µM) | – | 19.1 | – | – | –
7 | O=C(OC1CCC(CN2CCN(c3cc(=O)c4cc(C(F)(F)F)cc([N+](=O)[O-])c4s3)CC2)CC1)c1cccc(F)c1 (stereo not drawn) | – | – | – | < 0.016 | > 64 | – | – | – | –
8 | Cc1ccc(C(=O)OC2CCC(CN3CCN(c4cc(=O)c5cc(C(F)(F)F)cc([N+](=O)[O-])c5s4)CC3)CC2)cc1 (stereo not drawn) | 8.9 | 18 | 12.1 | 0.031 (≈ 0.0526 µM) | > 64 | 9.7 | – | – | –
9 | Nc1cc(C(F)(F)F)cc2c(=O)cc(N3CCN(CC4CCCCC4)CC3)sc12 | – | 69.4 | – | 12.7 (≈ 29.8 µM) | – | 0.9 | – | – | –
10 | CS(=O)(=O)OC1CCC(CN2CCN(c3cc(=O)c4cc(C(F)(F)F)cc([N+](=O)[O-])c4s3)CC2)CC1 (stereo not drawn) | – | – | – | < 0.016 | > 64 | – | – | – | –
11 | O=c1cc(N2CCN(CC3CCCCC3)CC2)sc2c([N+](=O)[O-])cc(C(F)(F)F)cc12 | – | 80.6 | – | < 0.016 | – | 82.4 | < 0.1 | – | –
12 | O=C(OC1CCC(CN2CCN(c3cc(=O)c4cc(C(F)(F)F)cc([N+](=O)[O-])c4s3)CC2)CC1)c1ccc(F)cc1 (stereo not drawn) | 5.9 | 1.5 | 4.9 | < 0.016 | > 64 | 3 | – | – | –
13 | O=C(OC1CCC(CN2CCN(c3cc(=O)c4cc(C(F)(F)F)cc([N+](=O)[O-])c4s3)CC2)CC1)c1ccco1 (stereo not drawn) | 4.5 | 0.6 | < 4.5 | < 0.016 | > 64 | 1 | – | – | –
14 | CO[C@H]1/C=C/O[C@@]2(C)Oc3c(C)c(O)c4c(O)c(c(/C=N/N5CCN(C)CC5)c(O)c4c3C2=O)NC(=O)/C(C)=C\C=C\[C@H](C)[C@H](O)[C@@H](C)[C@@H](O)[C@@H](C)[C@H](OC(C)=O)[C@@H]1C [RIFAMPIN] | – | – | – | 0.025 (≈ 0.0304 µM) | > 64 | – | – | – | –
15 | COc1ccccc1C(=O)OC1CCC(CN2CCN(c3cc(=O)c4cc(C(F)(F)F)cc([N+](=O)[O-])c4s3)CC2)CC1 (stereo not drawn) | – | – | – | 0.031 (≈ 0.0512 µM) | > 64 | – | – | – | –
16 | O=C(OC1CCC(CN2CCN(c3cc(=O)c4cc(C(F)(F)F)cc([N+](=O)[O-])c4s3)CC2)CC1)c1cccs1 (stereo not drawn) | 5.5 | 1.8 | 5.2 | < 0.016 | > 64 | 2.2 | – | – | –
17 | O=C(NC1CCC(CN2CCN(c3cc(=O)c4cc(C(F)(F)F)cc([N+](=O)[O-])c4s3)CC2)CC1)c1ccccc1 (stereo not drawn) | > 93.2 | 90.6 | > 93.2 | 0.244 (≈ 0.425 µM) | 44.3 (≈ 77.1 µM) | 92.9 | – | – | –
18 | O=c1cc(N2CCN(CC3CCC(NS(=O)(=O)c4ccccc4)CC3)CC2)sc2c([N+](=O)[O-])cc(C(F)(F)F)cc12 (stereo not drawn) | > 93.2 | 95.3 | > 93.2 | 0.107 (≈ 0.175 µM) | > 64 | 90.8 | – | – | –
19 | CCCC(=O)OC1CCC(CN2CCN(c3cc(=O)c4cc(C(F)(F)F)cc([N+](=O)[O-])c4s3)CC2)CC1 (stereo not drawn) | – | – | – | < 0.016 | > 64 | – | – | – | –
20 | O=c1cc(N2CCN(CC3CCC(OS(=O)(=O)c4cccnc4)CC3)CC2)sc2c([N+](=O)[O-])cc(C(F)(F)F)cc12 (stereo not drawn) | – | – | – | < 0.016 | > 64 | – | – | – | –
21 | NNC(=O)c1ccncc1 [ISONIAZID] | – | – | – | 0.039 (≈ 0.284 µM) | – | – | – | 24.66 | 130
